Test results: patent US20130184273A1, “BICYCLIC PYRIMIDINES” (Bayer Intellectual Property GmbH, priority 2010, published 2013)

Assays:
[1] = biological target: T1, His-tagged human recombinant kinase full-length Akt2 (Homo sapiens, UniProt P31751); test: Akt2 kinase assay (TR-FRET); format: biochemical; settings: 10 μM ATP, 60 min at 22° C., read-out: Akt2, median IC50
T1 construct: His-tagged human recombinant kinase full-length Akt2; His; purchased Invitrogen PV 3975; host or cells: insect cells
T1 sequence (P31751 whole entry): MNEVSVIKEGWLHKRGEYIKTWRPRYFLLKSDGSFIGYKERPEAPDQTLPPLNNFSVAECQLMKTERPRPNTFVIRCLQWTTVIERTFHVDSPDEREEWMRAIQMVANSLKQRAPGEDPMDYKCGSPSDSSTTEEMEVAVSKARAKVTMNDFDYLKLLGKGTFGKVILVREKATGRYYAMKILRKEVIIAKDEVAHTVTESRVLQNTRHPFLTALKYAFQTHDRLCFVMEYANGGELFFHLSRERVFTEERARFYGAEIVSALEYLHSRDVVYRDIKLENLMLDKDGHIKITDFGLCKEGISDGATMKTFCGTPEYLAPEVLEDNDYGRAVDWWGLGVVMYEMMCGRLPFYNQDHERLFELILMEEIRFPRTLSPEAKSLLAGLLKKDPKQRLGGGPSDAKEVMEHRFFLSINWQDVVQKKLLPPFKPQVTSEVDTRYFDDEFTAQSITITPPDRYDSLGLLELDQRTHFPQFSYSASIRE
Excerpt: Akt2 inhibitory activity of compounds of the present invention was quantified employing the Akt2 TR-FRET assay as described in the following paragraphs.
His-tagged human recombinant kinase full-length Akt2 expressed in insect cells and activated by PDK1 was purchased form Invitrogen (part number PV 3975). As substrate for the kinase reaction the biotinylated peptide biotin-Ahx-KKLNRTLSFAEPG (C-terminus in amide form) was used which can be purchased e.g. from the company Biosynthan GmbH (Berlin-Buch, Germany).
For the assay 50 nl of a 100 fold concentrated solution of the test compound in DMSO was pipetted into a black low volume 384well microtiter plate (Greiner Bio-One, Frickenhausen, Germany), 2 μl of a solution of Akt2 in assay buffer [50 mM TRIS/HCl pH 7.5, 5 mM MgCl2, 1 mM dithiothreitol, 0.02% (v/v) Triton X-100 (Sigma)] were added and the mixture was incubated for 15 min at 22° C. to allow pre-binding of the test compounds to the enzyme before the start of the kinase reaction. Then the kinase reaction was started by the addition of 3 μl of a solution of adenosine-tri-phosphate (ATP, 16.7 μM=>final conc. in the 5 μl assay volume is 10 μM) and substrate (1.67 μM=>final conc. in the 5 μl assay volume is 1 μM) in assay buffer and the resulting mixture was incubated for a reaction time of 60 min at 22° C. The concentration of Akt2 in the assay was adjusted depending of the activity of the enzyme lot and was chosen appropriate to have the assay in the linear range, typical enzyme concentrations were in the range of about 0.2 ng/μl (final conc. in the 5 μl assay volume).
The reaction was stopped by the addition of 5 μl of a solution of HTRF detection reagents (200 nM streptavidine-XL665 [Cisbio] and 1.5 nM anti-phosho-Serine antibody [Millipore, cat. #35-001] and 0.75 nM LANCE Eu-W 1024 labeled anti-mouse IgG antibody [Perkin Elmer]) in an aqueous EDTA-solution (100 mM EDTA, 0.1% (w/v) bovine serum albumin in 50 mM HEPES/NaOH pH 7.5).
The resulting mixture was incubated 1 h at 22° C. to allow the binding of the biotinylated phosphorylated peptide to the streptavidine-XL665 and the antibodies.
Subsequently the amount of phosphorylated substrate was evaluated by measurement of the resonance energy transfer from the anti-mouse-IgG-Eu-Chelate to the streptavidine-XL665. Therefore, the fluorescence emissions at 620 nm and 665 nm after excitation at 350 nm was measured in a TR-FRET reader, e.g. a Rubystar (BMG Labtechnologies, Offenburg, Germany) or a Viewlux (Perkin-Elmer). The ratio of the emissions at 665 nm and at […] was taken as the measure for the amount of phosphorylated substrate. The data were normalised (enzyme reaction without inhibitor=0% inhibition, all other assay components but no enzyme=100% inhibition).

[2] = tested on: phospho-AKT at S473 in KPL4 breast tumour cell line; test: Cellular p-AKT1/2/3-S473 assay; format: cell-based; settings: KPL4 cells, treated with compounds for 2 hours; read-out: pAKT-S743 median IC50
Description: The molecular mechanism of action was investigated in a set of experiments to assess the inhibition of the PI3K-AKT-mTOR pathway in responsive cell lines such as KPL4 breast tumour cell line (PIK3CAH1047R, HER20/E and hormone independent). The phospho-substrates of PI3K-AKT-mTOR axis were used as the read-outs to reflect pathway inhibition. Cells were seeded at 60-80% confluency per well in 96-well cell culture plates. After overnight incubation at 37° C. 5% CO2, cells were treated with compounds and vehicle at 37° C. for 2 hours. Thereafter, cells were lysed in 150 μl lysis buffer and the levels of phospho-AKT at T308 and S473 and p-4E-BP1 at T70 sites were determined with the corresponding AlphaScreen® SureFire® assay kits (Perkin Elmer: 4E-BP1 Assay Kit Cat # TRG4E2S10K; Akt 1/2/3 p-Ser 473 #TGRA4S500 and Akt 1/2/3 p-Thr 308 #TGRA3S500 as well as IgG detection Kit #6760617M) as described in the manuals. All measurements where at least done in duplicates and confirmed by independent repetition.
Alternatively pAKT-S473 was measured using the “Akt Duplex” of the MULTI-SPOT® Assay System (Fa. Meso Scale Discovery, Cat#N41100B-1) following manufacturers instructions. Each assay used 20 μg of protein extract and measured total AKT and p-AKT content simultaneously in one well. All measurements where at least done in duplicates and confirmed by independent repetition. Values for P-AKT are expressed as percentage of P-AKT level compared to total-AKT content of the extracts.

[3] = tested on: KPL-4 breast cancer cell line; test: Tumor cell proliferation assay (CellTiter-Glo); format: cell-based; settings: KPL4, 72 h drug exposure
Description: Compounds were tested in a cell-based assay that measures the capacity of the compounds to inhibit tumour cell proliferation following a 72 h drug exposure. Cell viability is determined using CellTiter-Glow® (CTG, Promega, cat #G7571/2/3). The CellTiter-Glo® Luminescent Cell Viability Assay is a homogeneous method to determine the number of viable cells in culture. Detection is based on using the luciferase reaction to measure the amount of ATP from viable cells. The amount of ATP in cells correlates with cell viability. Within minutes after a loss of membrane integrity, cells lose the ability to synthesize ATP, and endogenous ATPases destroy any remaining ATP; thus the levels of ATP fall precipitously.
Cells were plated at 3000-5000 cells/well (depending on the cell lines) in 90 μL growth medium on MTPs (Corning; #3603, black plate, clear flat bottom). For each cell line assayed, cells were plated onto a separate plate for determination of […] at t=0 hour and t=72 hour time points. Following overnight incubation at 37° C., chemiluminescence values for the t=0 samples were determined after adding 10 μl medium and 100 μl CTG solution according to manufacture protocol. Plates for the t=72 hour time points were treated with compounds diluted into growth medium at ten times final concentration added in 10 μL to the cell culture plate. Cells were then incubated for 72 hours at 37° C. Chemiluminescence values for the t=72 hour samples were determined. […] Experiments were controlled using a reference compound as standard.

- IC50 [1]: 629 nM
- IC50 [2]: 540 nM
- IC50 [3]: 2100 nM
SMILES: NC1(c2ccc(-c3nc4ncc(-c5ccc(F)c(CO)c5)n4cc3-c3ccccc3)cc2)CCC1 [Example 6-1, (5-{7-[4-(1-Amino-cyclobutyl)-phenyl]-6-phenyl-imidazo[1,2-a]pyrimidin-3-yl}-2-fluoro-phenyl)-methanol]
